From ChEMBL document CHEMBL1130509 (Bioorg Med Chem Lett, 1997) come the findings set out here.

The test system of one assay is Mus musculus. As to the kind of experiment: Compound was tested for inhibition of serotonin 5-HT3 receptor mediated bradycardia in Bezold-Jarisch reflex model in mice at 1 mg/kg after intraperitoneal administration. The class given is functional. Conditions: ip.
The target of assay [1] is T1, Serotonin 3 (5-HT3) receptor (Rattus norvegicus, UniProt P35563+Q9JJ16).
T1 sequence (P35563 whole entry): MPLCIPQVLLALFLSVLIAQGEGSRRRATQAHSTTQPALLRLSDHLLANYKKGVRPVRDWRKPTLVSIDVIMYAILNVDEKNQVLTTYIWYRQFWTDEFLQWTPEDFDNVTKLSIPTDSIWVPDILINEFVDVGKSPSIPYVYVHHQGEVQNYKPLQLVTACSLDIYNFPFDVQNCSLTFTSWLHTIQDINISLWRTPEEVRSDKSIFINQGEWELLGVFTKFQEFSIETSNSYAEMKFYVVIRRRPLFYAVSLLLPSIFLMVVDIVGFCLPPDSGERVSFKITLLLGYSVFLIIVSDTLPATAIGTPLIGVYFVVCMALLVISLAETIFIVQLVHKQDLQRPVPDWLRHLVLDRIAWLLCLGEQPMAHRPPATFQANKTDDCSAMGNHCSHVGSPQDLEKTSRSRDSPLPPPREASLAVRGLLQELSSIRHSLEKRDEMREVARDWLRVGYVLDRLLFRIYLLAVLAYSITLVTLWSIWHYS
T1 sequence (Q9JJ16 whole entry): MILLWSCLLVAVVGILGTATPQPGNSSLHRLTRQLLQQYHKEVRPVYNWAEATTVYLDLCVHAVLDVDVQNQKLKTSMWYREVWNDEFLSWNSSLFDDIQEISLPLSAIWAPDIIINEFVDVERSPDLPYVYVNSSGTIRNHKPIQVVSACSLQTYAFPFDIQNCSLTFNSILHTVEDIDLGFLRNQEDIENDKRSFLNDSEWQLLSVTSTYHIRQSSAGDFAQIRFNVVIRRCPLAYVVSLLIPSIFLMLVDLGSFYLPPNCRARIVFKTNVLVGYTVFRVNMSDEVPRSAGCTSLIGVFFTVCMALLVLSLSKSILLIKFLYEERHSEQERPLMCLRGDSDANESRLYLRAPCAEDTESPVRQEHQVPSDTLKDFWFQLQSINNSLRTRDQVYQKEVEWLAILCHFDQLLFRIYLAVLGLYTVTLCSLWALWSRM
Briefly: (§1) Compound was tested for its binding affinity for the 5-hydroxytryptamine 3 receptor. The class given is protein-complex assay.

The target of assay [2] is T2, D(2) dopamine receptor (Homo sapiens, UniProt P14416). As to the kind of experiment: Compound was selective with respect to binding at the Dopamine receptor D2.
Assay [3] has as its target 5-hydroxytryptamine receptor 4 (Rattus norvegicus, UniProt Q62758). As to the kind of experiment: Agonist activity against serotonin 5-HT4 receptor in rat tunica muscularis mucosae assay. The format is functional.
Assay [4] addresses T2, D(2) dopamine receptor. Briefly: Compound was tested for inhibitory activity against Dopamine D2 receptor.
A further assay has as its target Adrenergic receptor beta (Homo sapiens, UniProt P08588+P07550+P13945). Briefly: Compound was tested for inhibitory activity against Beta adrenergic receptor. The class given is protein assay.
In another assay the target is D(1A) dopamine receptor (Homo sapiens, UniProt P21728). As to the kind of experiment: Compound was tested for inhibitory activity against Dopamine D1 receptor.
Assay [5] has as its target Serotonin 2 (5-HT2) receptor (Homo sapiens, UniProt P41595+P28223+P28335). As to the kind of experiment: Compound was tested for inhibitory activity against 5-hydroxytryptamine 2 receptor. The class given is protein assay.
A further assay addresses Substance-P receptor (Homo sapiens, UniProt P25103). Briefly: Compound was tested for inhibitory activity against Tachykinin receptor 1.
Assay [6] in a line: Compound was tested for inhibitory activity against 5-hydroxytryptamine 1 receptor.
Assay [7] has as its target T3, Alpha-1B adrenergic receptor (Homo sapiens, UniProt P35368).
T3 sequence (P35368 whole entry): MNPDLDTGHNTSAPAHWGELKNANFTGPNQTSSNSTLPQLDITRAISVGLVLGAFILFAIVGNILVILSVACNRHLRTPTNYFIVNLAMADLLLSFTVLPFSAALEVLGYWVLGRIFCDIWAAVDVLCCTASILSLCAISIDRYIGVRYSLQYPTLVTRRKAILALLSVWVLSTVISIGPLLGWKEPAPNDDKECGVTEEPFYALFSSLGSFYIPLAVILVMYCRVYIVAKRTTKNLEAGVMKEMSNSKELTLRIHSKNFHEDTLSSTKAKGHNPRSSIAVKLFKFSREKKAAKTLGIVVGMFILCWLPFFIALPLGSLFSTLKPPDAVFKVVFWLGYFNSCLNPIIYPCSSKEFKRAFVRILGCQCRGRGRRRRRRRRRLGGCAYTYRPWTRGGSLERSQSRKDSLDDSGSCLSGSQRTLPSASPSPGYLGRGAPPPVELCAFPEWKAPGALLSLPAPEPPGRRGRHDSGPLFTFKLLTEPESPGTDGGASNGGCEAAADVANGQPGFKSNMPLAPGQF
As to the kind of experiment: Compound was tested for inhibitory activity against adrenergic alpha-1 receptor.

The target of assay [8] is Muscarinic acetylcholine receptor M3 (Rattus norvegicus, UniProt P08483). Briefly: Compound was tested for inhibitory activity against Muscarinic acetylcholine receptor.
For assay [9], the target named is T4, Alpha-2A adrenergic receptor (Rattus norvegicus, UniProt P22909).
T4 sequence (P22909 whole entry): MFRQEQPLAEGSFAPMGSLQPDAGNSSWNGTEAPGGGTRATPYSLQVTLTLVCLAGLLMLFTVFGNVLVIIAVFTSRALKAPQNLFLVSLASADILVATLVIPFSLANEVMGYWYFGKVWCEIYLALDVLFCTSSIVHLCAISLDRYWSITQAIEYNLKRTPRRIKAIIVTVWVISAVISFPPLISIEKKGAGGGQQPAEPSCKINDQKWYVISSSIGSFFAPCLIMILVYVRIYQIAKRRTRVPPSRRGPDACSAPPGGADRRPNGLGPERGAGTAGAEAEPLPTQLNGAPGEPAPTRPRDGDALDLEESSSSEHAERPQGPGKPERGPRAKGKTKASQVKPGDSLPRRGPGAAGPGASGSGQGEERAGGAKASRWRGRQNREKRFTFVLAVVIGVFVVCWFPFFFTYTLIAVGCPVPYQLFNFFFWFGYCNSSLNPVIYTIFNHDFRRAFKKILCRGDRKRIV
As to the kind of experiment: Compound was tested for inhibitory activity against adrenergic alpha-2 receptor.

Assay [10] addresses T5, 5-hydroxytryptamine receptor 3A (Homo sapiens, UniProt P46098).
T5 sequence (P46098 whole entry): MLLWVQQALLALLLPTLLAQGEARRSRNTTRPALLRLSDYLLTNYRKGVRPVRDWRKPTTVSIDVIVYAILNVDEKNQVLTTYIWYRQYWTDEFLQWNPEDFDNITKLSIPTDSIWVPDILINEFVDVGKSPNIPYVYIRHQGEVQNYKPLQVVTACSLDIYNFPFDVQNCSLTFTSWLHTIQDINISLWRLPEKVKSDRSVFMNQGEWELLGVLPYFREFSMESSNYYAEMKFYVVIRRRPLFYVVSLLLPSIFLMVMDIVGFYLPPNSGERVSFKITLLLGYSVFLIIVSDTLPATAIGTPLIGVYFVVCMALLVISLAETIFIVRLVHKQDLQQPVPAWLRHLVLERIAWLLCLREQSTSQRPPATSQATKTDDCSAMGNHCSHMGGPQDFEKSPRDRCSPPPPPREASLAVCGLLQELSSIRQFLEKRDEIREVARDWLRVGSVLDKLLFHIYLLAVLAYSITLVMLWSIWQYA
The assay is described as §1.

5-hydroxytryptamine receptor 4, sequence (Q62758 whole entry): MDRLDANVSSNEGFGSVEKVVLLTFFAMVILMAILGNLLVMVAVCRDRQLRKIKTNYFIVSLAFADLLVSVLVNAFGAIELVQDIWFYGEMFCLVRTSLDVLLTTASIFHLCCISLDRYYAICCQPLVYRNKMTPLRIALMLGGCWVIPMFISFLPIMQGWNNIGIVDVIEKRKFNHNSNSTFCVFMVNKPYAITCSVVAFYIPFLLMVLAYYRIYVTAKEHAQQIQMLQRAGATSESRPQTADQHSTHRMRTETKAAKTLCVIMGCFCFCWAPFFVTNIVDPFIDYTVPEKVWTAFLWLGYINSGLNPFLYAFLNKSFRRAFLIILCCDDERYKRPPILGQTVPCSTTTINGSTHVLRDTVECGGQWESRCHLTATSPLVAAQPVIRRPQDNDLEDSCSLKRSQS
T2 sequence (P14416 whole entry): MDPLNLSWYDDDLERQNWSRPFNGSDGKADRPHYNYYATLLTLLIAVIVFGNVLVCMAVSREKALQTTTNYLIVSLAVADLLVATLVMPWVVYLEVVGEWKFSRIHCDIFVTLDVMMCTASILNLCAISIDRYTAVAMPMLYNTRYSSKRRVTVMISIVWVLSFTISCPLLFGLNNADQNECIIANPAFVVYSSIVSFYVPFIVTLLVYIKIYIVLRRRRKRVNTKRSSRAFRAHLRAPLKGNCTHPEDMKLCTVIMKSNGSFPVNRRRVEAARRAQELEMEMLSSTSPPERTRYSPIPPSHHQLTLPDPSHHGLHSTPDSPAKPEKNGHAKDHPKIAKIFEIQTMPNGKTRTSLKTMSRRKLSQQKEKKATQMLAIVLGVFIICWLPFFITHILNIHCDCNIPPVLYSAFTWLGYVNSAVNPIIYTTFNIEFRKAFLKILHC
D(1A) dopamine receptor, sequence (P21728 whole entry): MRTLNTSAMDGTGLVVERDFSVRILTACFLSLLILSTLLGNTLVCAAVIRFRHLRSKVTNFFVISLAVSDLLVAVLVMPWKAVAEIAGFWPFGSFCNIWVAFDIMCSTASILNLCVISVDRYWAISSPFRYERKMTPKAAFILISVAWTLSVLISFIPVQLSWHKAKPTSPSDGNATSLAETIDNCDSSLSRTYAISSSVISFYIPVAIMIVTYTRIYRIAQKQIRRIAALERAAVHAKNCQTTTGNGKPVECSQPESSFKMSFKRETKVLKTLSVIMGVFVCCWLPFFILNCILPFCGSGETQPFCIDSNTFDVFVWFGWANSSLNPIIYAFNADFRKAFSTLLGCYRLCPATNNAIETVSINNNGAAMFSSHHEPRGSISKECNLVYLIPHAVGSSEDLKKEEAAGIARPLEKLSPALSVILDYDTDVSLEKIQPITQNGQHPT
Muscarinic acetylcholine receptor M3, sequence (P08483 whole entry): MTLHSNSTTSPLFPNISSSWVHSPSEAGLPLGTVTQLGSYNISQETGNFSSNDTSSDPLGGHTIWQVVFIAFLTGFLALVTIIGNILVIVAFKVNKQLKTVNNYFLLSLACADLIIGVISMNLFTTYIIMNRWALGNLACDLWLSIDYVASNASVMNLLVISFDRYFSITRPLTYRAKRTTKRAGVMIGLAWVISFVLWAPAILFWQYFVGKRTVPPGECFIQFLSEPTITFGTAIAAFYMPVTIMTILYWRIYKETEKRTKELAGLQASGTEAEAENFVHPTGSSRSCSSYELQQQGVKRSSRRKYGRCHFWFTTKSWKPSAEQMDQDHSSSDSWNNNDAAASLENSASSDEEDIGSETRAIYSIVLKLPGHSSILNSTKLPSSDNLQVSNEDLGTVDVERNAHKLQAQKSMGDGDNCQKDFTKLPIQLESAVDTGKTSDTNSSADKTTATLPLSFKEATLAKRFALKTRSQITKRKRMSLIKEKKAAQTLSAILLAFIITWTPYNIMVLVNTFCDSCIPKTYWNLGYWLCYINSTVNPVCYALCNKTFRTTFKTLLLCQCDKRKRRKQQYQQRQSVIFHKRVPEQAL
Substance-P receptor, sequence (P25103 whole entry): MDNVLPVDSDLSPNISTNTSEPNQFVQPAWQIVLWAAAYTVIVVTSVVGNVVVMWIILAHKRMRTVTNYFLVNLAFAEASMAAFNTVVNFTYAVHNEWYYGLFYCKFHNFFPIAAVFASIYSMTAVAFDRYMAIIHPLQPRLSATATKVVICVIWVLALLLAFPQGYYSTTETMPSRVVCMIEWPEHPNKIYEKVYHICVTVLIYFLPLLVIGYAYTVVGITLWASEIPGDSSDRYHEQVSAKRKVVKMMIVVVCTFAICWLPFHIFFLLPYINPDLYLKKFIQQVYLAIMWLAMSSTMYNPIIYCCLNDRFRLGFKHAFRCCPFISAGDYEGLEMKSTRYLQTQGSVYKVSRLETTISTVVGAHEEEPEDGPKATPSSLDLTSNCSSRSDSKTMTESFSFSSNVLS

For orientation: inhibition in vivo means how much of the control response was suppressed. A high value points to a response far below the control. The Ki is a measure of affinity in units of concentration, obtained from inhibition or displacement. Higher therefore signals a looser hold on the target. As a reminder, the IC50 is the concentration that gives 50% inhibition. High values mean weaker potency, low ones greater potency. Compound `COc1cc(N)c(Cl)cc1C(=O)NCC12CC3CN(CC3C1)C2` registered an inhibition in vivo at 1 mg/kg in the assay with Mus musculus of 70%. Moreover, in [1], the affinity corresponds to a Ki of 0.005 µM. Further, the IC50 on D(2) dopamine receptor [2] was greater than 10 µM.
A word on the EC50: it is the concentration giving half of the maximal effect. In the case of `COc1cc(NC(C)=O)c(Cl)cc1C(=O)NCC1C2CC3CC1CN3C2` (configuration not stated), the EC50 in assay [3] is greater than 10 µM.
Take `COc1cc(N)c(Cl)cc1C(=O)NC1C2CC3CN(C2)CC31.Cl` (configuration not stated): the concentration for half-maximal inhibition (IC50) (against D(2) dopamine receptor [4]; against Adrenergic receptor beta; at D(1A) dopamine receptor; in assay [5]; on Substance-P receptor; in assay [6]) was greater than 10 µM each time. The IC50 in assay [7], in assay [8] and in assay [9] was greater than 10 µM throughout. The compound further had an inhibition constant Ki in assay [10] of 0.0012 µM. For the same compound, in [3], the EC50 stood at 0.051 µM.
In assay [3], `COc1cc(N)c(Cl)cc1C(=O)NCCC12CC3CN(CC3C1)C2` returned an EC50 of 1.66 µM.
Still for that read-out and setting: the figure for `COc1cc(NC(C)=O)c(Cl)cc1C(=O)NC1C2CC3CC1CN3C2` (configuration not stated) is greater than 10 µM.
